Experimental data reported in the supplement of paper PMC11061612.

How the values were obtained:
Assay in all cases: Bliss excess, mean over the matrix (fraction); higher = more synergy
[1] = tested on: SNU-C1 (Colorectal Carcinoma)
Summary of the method: (§1)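 Cell lines grown in DMEM/F12 or RPMI with 10% FBS were plated in 1536-well plates and held 24 hours at 37°C, 5% CO2 before 72 hours of exposure to two-drug dose matrices, with DMSO typically at 0.2%. CellTiter-Glo 2.0 luminescence gave viability, which was converted to inhibition. Vehicle wells were set to 0 and blank wells to 1. Combination Emax is the second-highest inhibition in the matrix, and Bliss excess is the observed combination effect minus the expected EA + EB − EA·EB, where EA and EB are the single-agent effects.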

[2] = tested on: HuP-T3 (Pancreatic Carcinoma)
Summary of the method: as §1

[3] = tested on: OVISE (Ovarian Carcinoma)
Summary of the method: as §1

[4] = tested on: NCI-H2405 (Lung Adenocarcinoma)
Summary of the method: as §1

[5] = tested on: ASH-3 (Thyroid Gland Carcinoma)
Summary of the method: as §1

U-87-MG (Glioblastoma) = tested on: U-87-MG (Glioblastoma)
Summary of the method: as §1

IMR-5 (Neuroblastoma) = tested on: IMR-5 (Neuroblastoma)
Summary of the method: as §1

[6] = tested on: H-EMC-SS (Chondrosarcoma)
Summary of the method: as §1

EW-13 (Ewing's Sarcoma) = tested on: EW-13 (Ewing's Sarcoma)
Summary of the method: as §1

BT-20 (Breast Carcinoma) = tested on: BT-20 (Breast Carcinoma)
Summary of the method: as §1

[7] = tested on: LOU-NH91 (Squamous Cell Lung Carcinoma)
Summary of the method: as §1

[8] = tested on: SCC-9 (Oral Cavity Carcinoma)
Summary of the method: as §1

[9] = tested on: EBC-1 (Squamous Cell Lung Carcinoma)
Summary of the method: as §1

[10] = tested on: LC4-1 (B-Lymphoblastic Leukemia)
Summary of the method: as §1

[11] = tested on: KU-19-19 (Bladder Carcinoma)
Summary of the method: as §1

[12] = tested on: OCUB-M (Breast Carcinoma)
Summary of the method: as §1

[13] = tested on: NCI-H322M (Lung Adenocarcinoma)
Summary of the method: as §1

[14] = tested on: DG-75 (Burkitt's Lymphoma)
Summary of the method: as §1

[15] = tested on: KLE (Endometrial Carcinoma)
Summary of the method: as §1

[16] = tested on: KINGS-1 (Low Grade Glioma)
Summary of the method: as §1

Work on `Cc1c2c(nn1C)CSCc1cc(n(C)n1)CSc1cc(c3ccccc3c1)OCCCc1c(C(=O)O)n(C)c3c-2c(Cl)ccc13` [AZD5991] + C=CCn1c(=O)c2cnc(Nc3ccc(N4CCN(C)CC4)cc3)nc2n1-c1cccc(C(C)(C)O)n1 [AZD1775] (first compound max 1 µM, partner max 1 µM) yielded a Bliss excess [1] of -0.0839, a Bliss excess [2] of -0.0454 and a Bliss excess [3] of 0.0108. For the same molecule, the Bliss excess [4] was 0.0385, the Bliss excess [5] was -0.0243 and the Bliss excess (U-87-MG (Glioblastoma)) was 0.0392. The Bliss excess (IMR-5 (Neuroblastoma)) was 0.0063, the Bliss excess [6] was 0.0071 and the Bliss excess (EW-13 (Ewing's Sarcoma)) was -0.0441. For the same molecule, the Bliss excess (BT-20 (Breast Carcinoma)) was -0.02, the Bliss excess [7] was 0.0376 and the Bliss excess [8] was -0.0123. It also gave a Bliss excess [9] of 0.0007, a Bliss excess [10] of 0.0301 and a Bliss excess [11] of -0.0518. For the same molecule, the Bliss excess [12] was 0.034, the Bliss excess [13] was -0.023 and the Bliss excess [14] was -0.0098. For the same molecule, the Bliss excess [15] was -0.0616 and the Bliss excess [16] was -0.0037.
With `CC1(C)CCC(CN2CCN(c3ccc(C(=O)NS(=O)(=O)c4ccc(NCC5CCOCC5)c([N+](=O)[O-])c4)c(Oc4cnc5[nH]ccc5c4)c3)CC2)=C(c2ccc(Cl)cc2)C1` [Venetoclax] + COc1cc(Nc2ncc3c(n2)-c2ccc(Cl)cc2C(c2c(F)cccc2OC)=NC3)ccc1C(=O)O [Alisertib] (first compound max 1 µM, 7x7, partner max 10 µM) the Bliss excess [1] was -0.0323, the Bliss excess [2] was -0.0527 and the Bliss excess [3] was -0.0523. It also gave a Bliss excess [4] of -0.0251, a Bliss excess [5] of 0.0145 and a Bliss excess (U-87-MG (Glioblastoma)) of -0.087. It also gave a Bliss excess (IMR-5 (Neuroblastoma)) of 0.0402, a Bliss excess [6] of 0.0092 and a Bliss excess (EW-13 (Ewing's Sarcoma)) of 0.0517. The Bliss excess (BT-20 (Breast Carcinoma)) was 0.08, the Bliss excess [7] was -0.0026 and the Bliss excess [8] was -0.0571. The Bliss excess [9] was -0.0271, the Bliss excess [10] was 0.0661 and the Bliss excess [11] was -0.0086. For the same molecule, the Bliss excess [12] was 0.111, the Bliss excess [13] was -0.0612 and the Bliss excess [14] was 0.028. For the same molecule, the Bliss excess [15] was -0.0709 and the Bliss excess [16] was -0.0049.
Work on `CN(CCO)CC[C@H](CSc1ccccc1)Nc1ccc(S(=O)(=O)NC(=O)c2ccc(N3CCC([C@@H](O)c4ccccc4-c4ccc(Cl)cc4)CC3)cc2)cc1S(=O)(=O)C(F)(F)F` [AZD4320] + CCN(CCO)CCCOc1ccc2c(Nc3cc(CC(=O)Nc4cccc(F)c4)[nH]n3)ncnc2c1 [AZD2811] (first compound max 1 µM, 7x7, partner max 1 µM) yielded a Bliss excess [1] of -0.0263, a Bliss excess [2] of -0.0384 and a Bliss excess [3] of -0.0008. For the same molecule, the Bliss excess [4] was -0.0333, the Bliss excess [5] was 0.0577 and the Bliss excess (U-87-MG (Glioblastoma)) was -0.019. The Bliss excess (IMR-5 (Neuroblastoma)) was -0.0229, the Bliss excess [6] was 0.0545 and the Bliss excess (EW-13 (Ewing's Sarcoma)) was -0.0076. It also gave a Bliss excess (BT-20 (Breast Carcinoma)) of 0.0212, a Bliss excess [7] of 0.0995 and a Bliss excess [8] of -0.0115. It also gave a Bliss excess [9] of 0.0178, a Bliss excess [10] of -0.0049 and a Bliss excess [11] of 0.0207. For the same molecule, the Bliss excess [12] was 0.0283, the Bliss excess [13] was -0.0353 and the Bliss excess [14] was -0.0224. It also gave a Bliss excess [15] of -0.0207 and a Bliss excess [16] of 0.006.
With `Cc1c2c(nn1C)CSCc1cc(n(C)n1)CSc1cc(c3ccccc3c1)OCCCc1c(C(=O)O)n(C)c3c-2c(Cl)ccc13` [AZD5991] + C1CN(CCC1(C(=O)N[C@@H](CCO)C2=CC=C(C=C2)Cl)N)C3=NC=NC4=C3C=CN4 [Capivasertib] (first compound max 1 µM, 7x7, partner max 3 µM) the Bliss excess [1] was -0.0004, the Bliss excess [2] was -0.0186 and the Bliss excess [3] was -0.0651. The Bliss excess [4] was -0.0402, the Bliss excess [5] was -0.0769 and the Bliss excess (U-87-MG (Glioblastoma)) was 0.0264. It also gave a Bliss excess (IMR-5 (Neuroblastoma)) of 0.0045, a Bliss excess [6] of -0.0227 and a Bliss excess (EW-13 (Ewing's Sarcoma)) of 0.0256. For the same molecule, the Bliss excess (BT-20 (Breast Carcinoma)) was 0.131, the Bliss excess [7] was 0.0122 and the Bliss excess [8] was -0.0113. For the same molecule, the Bliss excess [9] was 0.0259, the Bliss excess [10] was 0.0364 and the Bliss excess [11] was -0.0321. It also gave a Bliss excess [12] of 0.0321, a Bliss excess [13] of 0.0198 and a Bliss excess [14] of -0.0281. For the same molecule, the Bliss excess [15] was -0.01 and the Bliss excess [16] was -0.0468.
